From PubChem BioAssay (NCI) come the findings set out here.

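Five concentrations, 48 hours, 96-well plates. At the TGI there is no net growth.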 Bounds are passed on as bounds.

For this experiment, the system named is P388 leukemia. Briefly: NCI tumour cell line growth inhibition, 48 h.
The compound `COC1=C2C[C@@H](C)C[C@@H](OC)[C@@H](O)[C@H](C)/C=C(\C)[C@@H](OC(N)=O)[C@H](OC)/C=C\C=C(/C)C(=O)NC(=CC1=O)C2=O` returned a TGI of 0.48 µM.

As for `CC(C)NC(=O)OCc1c(COC(=O)NC(C)C)c(-c2ccc(Cl)c(Cl)c2)n2c1CCC2`, the TGI is over 100 µM.

As for `OCC1OC(n2cnc3c2NC=NC[C@H]3O)CC1O` (stereo partly drawn), the TGI came out at 500 µM.
